Among the data in patent US20250248998A1, “LRRK2 Inhibitors” (Brenig Therapeutics, Inc., priority 2022, published 2025) are Ki, IC50 and CC50 values, retold here.

The target in data set [1] is T1, LRRK2 WT (Homo sapiens, UniProt Q5S007). In words: Enzymatic activity inhibition against LRRK2 WT (ADP-Glo kinase assay, LRRKtide substrate). The following applies: recombinant LRRK2 WT 36 nM, ATP, 1 h at rt, average Ki. Type of data set: biochemical. Also noted: purchased SignalChem Biotech, Inc. L10-11G-10. On the procedure:
Example B. Primary Assays Used to Determine Potency of the LRRK2 Inhibition
Assay for Determining Enzymatic Activity Inhibition Against LRRK2 WT.
Compound activity was determined using recombinant LRRK2 WT protein (SignalChem Biotech, Inc., Cat #L10-11G-10) and LRRKtide substrate (SignalChem Biotech, Inc., Cat #L10-58) in an in vitro enzymatic reaction. The enzymatic reaction was carried out in assay buffer (40 mM TRIS-HCl pH 7.4, 20 mM MgCl2, 0.05 mM DTT, 0.1 mg/mL BSA). The compounds were dispensed into a 384 well Diamond Well Plate (Axigen, Cat #P-384-120SQ-C-S) using the Biomek FX liquid handling system at 80× solutions of compounds in DMSO. The 2× Protein-Substrate mix (final concentration 36 nM of LRRK2 WT and 0.8 μg/μL of LRRKtide) was prepared in the 1× Assay buffer and 4 μL of mixture per well was added into the 384-well white Reaction plate with NBS (Corning, Cat #CLS4513). The 4 μL of LRRKtide substrate w/o LRRK2 WT in the 1× buffer was used for a negative control. Plates were centrifuged for 1 min at 200 g. Next the compounds were added to Reaction plate using Biomek station via following steps: 1 μL of 80× compounds (in DMSO) were mixed thoroughly with 39 μL of 2×10 μM ATP in Assay Buffer, then 4 μL of this mixture was added to Reaction plate with 4 μL of Protein-Substrate mix. Plates were centrifuged for 1 min at 200 g and incubated for 1 hour at rt. Then, 4 μL per well of ADP-Glo reagent (Promega, ADP-Glo™ Kinase Assay, Cat #V9102) was added. Plates were incubated for 30 minutes at rt. Then, 8 μL per well of Kinase detection reagent (Promega, ADP-Glo™ Kinase Assay, Cat #V9102) was added and the luminescence signal was measured with a microplate reader. The % inhibition was then used to calculate the Ki values. The average Ki values are shown in Table B, wherein “A” corresponds to Ki<10.0 nM, “B” corresponds to 10.0 nM K Ki<20.0 nM, “C” 20.0 nM K Ki<50.0 nM, “D” corresponds to 50.0 nM K Ki<100.0 nM and “E” corresponds to Ki>100.0 nM.
Target sequence in this assay (Q5S007 970-2527 limits assumed): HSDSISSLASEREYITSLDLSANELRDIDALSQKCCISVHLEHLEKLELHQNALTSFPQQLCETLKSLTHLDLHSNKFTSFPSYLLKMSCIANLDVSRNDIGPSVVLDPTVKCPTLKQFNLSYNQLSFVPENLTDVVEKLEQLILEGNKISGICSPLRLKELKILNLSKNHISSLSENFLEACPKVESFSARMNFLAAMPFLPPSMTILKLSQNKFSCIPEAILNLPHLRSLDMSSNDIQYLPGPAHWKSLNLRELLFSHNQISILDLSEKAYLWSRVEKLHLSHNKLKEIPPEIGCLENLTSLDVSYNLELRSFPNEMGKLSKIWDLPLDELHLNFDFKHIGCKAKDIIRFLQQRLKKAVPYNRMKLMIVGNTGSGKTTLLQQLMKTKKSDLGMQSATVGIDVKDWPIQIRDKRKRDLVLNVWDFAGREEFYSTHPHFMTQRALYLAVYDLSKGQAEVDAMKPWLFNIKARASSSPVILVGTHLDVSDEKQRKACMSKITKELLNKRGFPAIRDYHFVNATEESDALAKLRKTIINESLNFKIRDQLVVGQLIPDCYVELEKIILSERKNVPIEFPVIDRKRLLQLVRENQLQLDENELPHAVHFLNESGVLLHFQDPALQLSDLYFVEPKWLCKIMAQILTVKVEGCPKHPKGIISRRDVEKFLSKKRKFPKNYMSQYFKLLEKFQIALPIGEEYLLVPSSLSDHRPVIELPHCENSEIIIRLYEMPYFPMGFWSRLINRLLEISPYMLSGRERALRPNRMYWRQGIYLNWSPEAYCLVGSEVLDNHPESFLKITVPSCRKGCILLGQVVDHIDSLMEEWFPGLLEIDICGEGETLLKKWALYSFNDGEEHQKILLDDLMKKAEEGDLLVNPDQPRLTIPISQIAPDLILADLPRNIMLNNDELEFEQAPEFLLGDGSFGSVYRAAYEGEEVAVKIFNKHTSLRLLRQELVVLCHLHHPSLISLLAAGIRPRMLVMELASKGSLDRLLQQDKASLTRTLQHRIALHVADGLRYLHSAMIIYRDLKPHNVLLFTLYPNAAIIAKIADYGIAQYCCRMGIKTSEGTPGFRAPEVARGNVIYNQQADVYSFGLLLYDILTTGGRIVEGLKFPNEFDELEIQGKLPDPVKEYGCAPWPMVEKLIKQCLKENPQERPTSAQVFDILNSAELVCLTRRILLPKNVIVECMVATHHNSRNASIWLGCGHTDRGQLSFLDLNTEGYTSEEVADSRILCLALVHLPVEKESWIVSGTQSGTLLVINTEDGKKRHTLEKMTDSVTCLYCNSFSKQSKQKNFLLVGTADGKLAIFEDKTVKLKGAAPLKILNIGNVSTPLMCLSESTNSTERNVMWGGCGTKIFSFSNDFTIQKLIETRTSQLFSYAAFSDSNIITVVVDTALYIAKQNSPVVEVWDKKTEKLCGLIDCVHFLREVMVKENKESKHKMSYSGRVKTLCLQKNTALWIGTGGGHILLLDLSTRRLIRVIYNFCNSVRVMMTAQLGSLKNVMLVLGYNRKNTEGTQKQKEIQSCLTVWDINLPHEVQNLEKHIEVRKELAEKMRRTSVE

In data set [2] the target is T1, LRRK2 WT. Put plainly: Cell-based NanoBRET target engagement assay in HEK293 cells transfected with LRRK2 WT-NanoLuc fusion vector. Details: expressed in transfected cells; host or cells: HEK293 (ATCC). Conditions: compound treatment 1 h. The method in brief:
(§1)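 HEK293 cells transiently transfected with NanoLuc-fused LRRK2 WT or G2019S (1 μg) plus carrier DNA, treated 1 h with compound (10-dose, 3-fold dilution from 1 μM). Target engagement read by NanoBRET; IC50 fitted only when signal at top concentration was below 5500.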
Target sequence in this assay (Q5S007 whole entry): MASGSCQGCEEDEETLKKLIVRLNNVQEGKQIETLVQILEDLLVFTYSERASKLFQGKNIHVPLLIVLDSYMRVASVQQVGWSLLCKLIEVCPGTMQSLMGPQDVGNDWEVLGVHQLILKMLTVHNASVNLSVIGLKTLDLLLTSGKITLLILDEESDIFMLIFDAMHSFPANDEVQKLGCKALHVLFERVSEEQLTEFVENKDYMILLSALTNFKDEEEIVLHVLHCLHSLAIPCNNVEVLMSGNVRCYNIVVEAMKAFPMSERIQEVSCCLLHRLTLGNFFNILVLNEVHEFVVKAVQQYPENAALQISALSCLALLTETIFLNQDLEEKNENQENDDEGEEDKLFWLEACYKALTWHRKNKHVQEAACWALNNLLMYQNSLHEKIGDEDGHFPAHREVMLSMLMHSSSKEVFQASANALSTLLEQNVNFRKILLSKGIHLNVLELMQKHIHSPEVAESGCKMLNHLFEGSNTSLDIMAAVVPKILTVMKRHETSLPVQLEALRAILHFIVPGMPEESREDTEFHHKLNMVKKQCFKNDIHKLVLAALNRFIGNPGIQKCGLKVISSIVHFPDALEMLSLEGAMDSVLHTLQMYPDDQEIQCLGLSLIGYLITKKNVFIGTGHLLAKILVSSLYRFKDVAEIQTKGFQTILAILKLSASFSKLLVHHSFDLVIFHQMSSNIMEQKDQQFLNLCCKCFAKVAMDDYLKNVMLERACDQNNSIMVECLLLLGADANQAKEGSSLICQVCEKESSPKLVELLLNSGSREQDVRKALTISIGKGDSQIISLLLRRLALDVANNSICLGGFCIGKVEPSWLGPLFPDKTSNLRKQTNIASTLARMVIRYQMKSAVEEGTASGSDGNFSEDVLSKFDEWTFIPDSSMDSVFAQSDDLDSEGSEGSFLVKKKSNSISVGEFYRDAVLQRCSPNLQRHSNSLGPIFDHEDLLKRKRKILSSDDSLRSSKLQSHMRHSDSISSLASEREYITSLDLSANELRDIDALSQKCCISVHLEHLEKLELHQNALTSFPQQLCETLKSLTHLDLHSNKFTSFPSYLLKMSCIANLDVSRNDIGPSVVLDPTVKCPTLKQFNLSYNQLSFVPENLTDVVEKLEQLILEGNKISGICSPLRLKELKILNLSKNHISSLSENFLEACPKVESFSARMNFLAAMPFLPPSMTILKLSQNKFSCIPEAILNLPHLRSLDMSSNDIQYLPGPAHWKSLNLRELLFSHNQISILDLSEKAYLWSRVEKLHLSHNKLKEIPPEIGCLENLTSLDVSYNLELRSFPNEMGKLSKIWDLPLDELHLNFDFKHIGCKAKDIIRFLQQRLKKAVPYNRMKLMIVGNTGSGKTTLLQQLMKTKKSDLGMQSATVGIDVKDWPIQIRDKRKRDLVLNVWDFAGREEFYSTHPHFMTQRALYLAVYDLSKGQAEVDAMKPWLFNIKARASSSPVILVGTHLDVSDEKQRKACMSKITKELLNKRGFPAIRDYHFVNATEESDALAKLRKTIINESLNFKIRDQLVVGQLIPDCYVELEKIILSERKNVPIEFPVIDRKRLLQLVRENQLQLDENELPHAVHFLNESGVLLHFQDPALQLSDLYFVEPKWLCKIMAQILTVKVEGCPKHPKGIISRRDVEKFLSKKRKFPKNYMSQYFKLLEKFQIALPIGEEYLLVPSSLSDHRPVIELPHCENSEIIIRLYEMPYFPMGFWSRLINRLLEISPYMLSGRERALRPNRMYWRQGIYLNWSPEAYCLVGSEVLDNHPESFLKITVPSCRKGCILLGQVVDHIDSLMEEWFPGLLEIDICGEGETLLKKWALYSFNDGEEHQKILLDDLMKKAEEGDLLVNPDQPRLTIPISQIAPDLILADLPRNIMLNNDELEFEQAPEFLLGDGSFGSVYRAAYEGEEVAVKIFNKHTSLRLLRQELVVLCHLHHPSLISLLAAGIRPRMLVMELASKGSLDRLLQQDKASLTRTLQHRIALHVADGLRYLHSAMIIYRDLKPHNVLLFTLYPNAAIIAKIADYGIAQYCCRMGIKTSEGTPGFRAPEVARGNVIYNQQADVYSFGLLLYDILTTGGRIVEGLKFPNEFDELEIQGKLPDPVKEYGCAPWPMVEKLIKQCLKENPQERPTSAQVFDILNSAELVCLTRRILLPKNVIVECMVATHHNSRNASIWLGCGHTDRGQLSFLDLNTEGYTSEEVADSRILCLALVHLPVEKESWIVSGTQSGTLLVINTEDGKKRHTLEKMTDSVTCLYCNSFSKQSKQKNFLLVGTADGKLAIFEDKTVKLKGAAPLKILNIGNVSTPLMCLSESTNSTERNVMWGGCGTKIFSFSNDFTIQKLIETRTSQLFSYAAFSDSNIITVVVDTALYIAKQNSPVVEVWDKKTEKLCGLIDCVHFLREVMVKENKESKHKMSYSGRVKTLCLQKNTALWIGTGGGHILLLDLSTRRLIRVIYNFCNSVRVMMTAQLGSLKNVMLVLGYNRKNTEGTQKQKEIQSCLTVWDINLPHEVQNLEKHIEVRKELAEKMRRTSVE

Data set [3] concerns the target T2, LRRK2[G2019S] (Homo sapiens, UniProt Q5S007, G2019S). Put plainly: Cell-based NanoBRET target engagement assay in HEK293 cells transfected with LRRK2 (G2019S)-NanoLuc fusion vector. Also noted: expressed in transfected cells; host or cells: HEK293 (ATCC). The following applies: compound treatment 1 h. The method in brief: as §1
Target sequence in this assay (Q5S007 whole entry G2019S, the tested form may be a part): as the sequence (Q5S007 whole entry) above, with G2019S counted along it
Data set [4] is described as follows: A549 cytotoxicity assay (CellTiter-Glo). Conditions: human, A549 cells, 3 days of incubation. Type of data set: cell-based. How it is done: Example D. A549 Cytotoxicity Assay Used to Determine Safety of the LRRK2 Inhibitors
A549 (ATCC, CCL-185) cells were seeded at a density of 4000 cells per well in a 384-well clear bottom plate (Greiner Cat #781090) in 45 μL total volume of the complete cell culture medium DMEM (PanEco, Cat #C420, Russia) with 10% FBS (HyClone Cat #SV30160.03). The cells were allowed to adhere overnight at 37° C., 5% CO2. The 500× compounds solutions in DMSO (Sigma Cat #D2650) were prepared in the compounds plate (Diamond Well Plate, Axigen, Cat #P-384-120SQ-C-S) and DMSO as a vehicle control was included. The 1 μL aliquot of 500× compounds (Compounds plate) was added to the 49 μL culture medium in the Dilution plate (Diamond Well Plate, Axigen, Cat #P-384-120SQ-C-S), mixed and then the 5 μL aliquots of the 10× compounds solutions was transferred to cells followed by centrifugation at 100 g for 1 min. Final DMSO concentration was 0.2%. After 3 days of incubation the 10 μL per well of CellTiter-Glo (Promega, CAT #G7572) was added to the cells, plate was centrifuged at 100 g for 1 min. The luminescence signal was detected with CLARIOstar Plus (BMG LABTECH) microplate reader.

The target of data set [5] is T2, LRRK2[G2019S]. Put plainly: Enzymatic activity inhibition against LRRK2[G2019S] (ADP-Glo kinase assay, LRRKtide substrate). Type of data set: biochemical. Details: purchased SignalChem Biotech, Inc. L10-12GG-10. Conditions: recombinant LRRK2[G2019S] 36 nM, ATP, 1 h at rt, average Ki. How it is done: Example A. Primary Assays Used to Determine Potency of the LRRK2 Inhibition
Assay for Determining Enzymatic Activity Inhibition Against LRRK2[G2019S].
Compound activity was determined using recombinant LRRK2[G2019S] protein (SignalChem Biotech, Inc., Cat #L10-12GG-10) and LRRKtide substrate (SignalChem Biotech, Inc., Cat #L10-58) in an in vitro enzymatic reaction. The enzymatic reaction was carried out in assay buffer (40 mM TRIS-HCl pH 7.4, 20 mM MgCl2, 0.05 mM DTT, 0.1 mg/mL BSA). The compounds were dispensed into a 384 well Diamond Well Plate (Axigen, Cat #P-384-120SQ-C-S) using the Biomek FX liquid handling system at the 80× solutions of compounds in DMSO. The 2× Protein-Substrate mix (final concentration 36 nM of LRRK2[G2019S] and 0.8 μg/μL of LRRKtide) was prepared in 1× Assay buffer and 4 μL of mixture per well was added into the 384-well white Reaction plate with NBS (Corning, Cat #CLS4513). The 4 μL of LRRKtide substrate w/o LRRK2[G2019S] in the 1× buffer was used for a negative control. Plates were centrifuged for 1 min at 200 g. Next the compounds were added to the reaction plate using Biomek station via following steps: 1 μL of 80× compounds (in DMSO) were mixed thoroughly with 39 μL of 2×10 μM ATP in Assay Buffer, then 4 μL of this mixture was added to Reaction plate with 4 μL of Protein-Substrate mix. Plates were centrifuged for 1 min at 200 g and incubated for 1 h at rt. Then, 4 μL per well of ADP-Glo reagent (Promega, ADP-Glo™ Kinase Assay, Cat #V9102) was added. Plates were incubated for 30 min at rt. Then, 8 μL per well of Kinase detection reagent (Promega, ADP-Glo™ Kinase Assay, Cat #V9102) was added and the luminescence signal was measured with a microplate reader. The luminescence signal was detected with CLARIOstar Plus (BMG LABTECH) microplate reader. The % inhibition was then used to calculate the Ki values. The average Ki values are shown in Table A, wherein “A” corresponds to Ki<5.0 nM, “B” corresponds to 5.0 nM≤Ki<10.0 nM, “C” 10.0 nM≤Ki<50.0 nM, “D” corresponds to 50.0 nM≤Ki<100.0 nM and “E” corresponds to Ki>100.0 nM.
Target sequence in this assay (Q5S007 970-2527 G2019S limits assumed): as the sequence (Q5S007 970-2527 limits assumed) above, with G1050S counted along it

Consider `Cn1nc(-c2n[nH]c3ccc(OC4(C)CC4)cc23)cc(N2CCCC(F)(F)C2)c1=O` [Compound 54, 4-(3,3-difluoro-1-piperidyl)-2-methyl-6-[5-(1-methylcyclopropoxy)-1H-indazol-3-yl]pyridazin-3-one], for which the Ki is ≤ 10 nM on LRRK2 WT [1] and ≤ 5 nM at LRRK2[G2019S] [5]. Further, the IC50 at LRRK2 WT [2] and against LRRK2[G2019S] [3] was ≤ 50 nM each time. For the same compound, the CC50 at 3 days in data set [4] is > 10000 nM.

For `CC(C)Oc1ccc2[nH]nc(-c3cnnc(N4CCC(O)C4)c3)c2c1` (stereo in doubt) [Compound 2, (R)-1-(5-(5-isopropoxy-1H-indazol-3-yl)pyridazin-3-yl)pyrrolidin-3-ol], the values for the Ki on LRRK2 WT [1] and at LRRK2[G2019S] [5] were 10 to 20 nM and 5 to 10 nM, respectively. The IC50 against LRRK2 WT [2] and against LRRK2[G2019S] [3] was ≥ 100 nM each time. Also, the CC50 at 3 days in data set [4] is > 10000 nM.

Turning to `Cn1nc(-c2n[nH]c3ccc(OC4(C)CC4)cc23)cc(N2CCOCC2)c1=O` [Compound 27, 2-methyl-6-[5-(1-methylcyclopropoxy)-1H-indazol-3-yl]-4-morpholino-pyridazin-3-one], the inhibitory constant (Ki) on LRRK2 WT [1] was ≤ 10 nM; on LRRK2[G2019S] [5], ≤ 5 nM. For the same compound, the IC50 at LRRK2 WT [2] and against LRRK2[G2019S] [3] was ≤ 50 nM each time. Moreover, in data set [4], the CC50 at 3 days is > 27000 nM.

As to `CC(C)Oc1ccc2[nH]nc(-c3cc(N4CCCC4)c(=O)n(C)n3)c2c1` [Compound 44, 6-(5-isopropoxy-1H-indazol-3-yl)-2-methyl-4-pyrrolidin-1-yl-pyridazin-3-one], the Ki was ≤ 10 nM at LRRK2 WT [1] and ≤ 5 nM on LRRK2[G2019S] [5]. Moreover, the IC50 against LRRK2 WT [2] and on LRRK2[G2019S] [3] was ≤ 50 nM in each case. For the same compound, the 50% cytotoxic concentration (CC50) at 3 days in data set [4] is > 10000 nM.

For the compound `CC1CCN(c2cc(-c3n[nH]c4ccc(OC(C)C)cc34)cnn2)C1` (centres unmarked) [Compound 3, 5-isopropoxy-3-[6-(3-methylpyrrolidin-1-yl)pyridazin-4-yl]-1H-indazole], the Ki on LRRK2 WT [1] is ≤ 10 nM; at LRRK2[G2019S] [5], ≤ 5 nM. Further, the IC50 at LRRK2 WT [2] and against LRRK2[G2019S] [3] was ≥ 100 nM each time. For the same compound, in data set [4], the CC50 at 3 days was > 10000 nM.

As for `Cn1nc(-c2n[nH]c3ccc(OC4(C)CC4)cc23)cc(N2CCC3(CCC3)C2)c1=O` [Compound 56, 4-(6-azaspiro[3.4]octan-6-yl)-2-methyl-6-[5-(1-methylcyclopropoxy)-1H-indazol-3-yl]pyridazin-3-one], the Ki is ≤ 10 nM on LRRK2 WT [1] and ≤ 5 nM at LRRK2[G2019S] [5]. Besides, the IC50 against LRRK2 WT [2] and against LRRK2[G2019S] [3] was ≤ 50 nM throughout. In data set [4], the CC50 at 3 days is > 10000 nM.

For `CC(C)Oc1ccc2[nH]nc(-c3cc(N4CCOCC4)c(=O)n(C)n3)c2c1` [Compound 14, 6-(5-isopropoxy-1H-indazol-3-yl)-2-methyl-4-morpholino-pyridazin-3-one], the figures for the Ki at LRRK2 WT [1] and on LRRK2[G2019S] [5] were ≤ 10 nM and ≤ 5 nM, respectively. Further, the concentration for half-maximal inhibition (IC50) at LRRK2 WT [2] and on LRRK2[G2019S] [3] was ≥ 100 nM in each case. Also, the 50% cytotoxic concentration (CC50) at 3 days in data set [4] was > 10000 nM.

For the compound `C[C@@H]1CN(c2cc(-c3n[nH]c4ccc(OC5(C)CC5)cc34)nn(C)c2=O)C[C@H](C)O1` [Compound 50, 4-[(2S,6R)-2,6-dimethylmorpholin-4-yl]-2-methyl-6-[5-(1-methylcyclopropoxy)-1H-indazol-3-yl]pyridazin-3-one], the Ki was ≤ 10 nM on LRRK2 WT [1] and ≤ 5 nM on LRRK2[G2019S] [5]. The IC50 against LRRK2 WT [2] and on LRRK2[G2019S] [3] was ≤ 50 nM each time. The CC50 at 3 days in data set [4] was > 10000 nM.

For the compound `Cn1nc(-c2n[nH]c3ccc(OC4(C)CC4)cc23)cc(N2CCOCC3(CC3)C2)c1=O` [Compound 52, 2-methyl-6-[5-(1-methylcyclopropoxy)-1H-indazol-3-yl]-4-(5-oxa-8-azaspiro[2.6]nonan-8-yl)pyridazin-3-one], the values for the Ki at LRRK2 WT [1] and at LRRK2[G2019S] [5] were ≤ 10 nM and ≤ 5 nM, respectively. Moreover, the half-inhibitory concentration (IC50) on LRRK2 WT [2] and against LRRK2[G2019S] [3] was ≤ 50 nM each time. In addition, the CC50 at 3 days in data set [4] was > 10000 nM.

Consider `Cn1nc(-c2n[nH]c3ccc(OC4(C)CC4)cc23)cc(N2CC(C)(C)C3COCC32)c1=O` (centres unmarked) [Compound 48, 4-(3,3-dimethyl-3a,4,6,6a-tetrahydro-2H-furo[3,4-b]pyrrol-1-yl)-2-methyl-6-[5-(1-methylcyclopropoxy)-1H-indazol-3-yl]pyridazin-3-one], for which the Ki was ≤ 10 nM on LRRK2 WT [1] and ≤ 5 nM on LRRK2[G2019S] [5]. Besides, the 50% inhibitory concentration (IC50) against LRRK2 WT [2] and against LRRK2[G2019S] [3] was ≤ 50 nM each time. Moreover, the cytotoxic concentration (CC50) at 3 days in data set [4] was > 10000 nM.
